Patent US9204653B2, “5-fluoro pyrimidine derivatives” (DOW AGROSCIENCES LLC, priority 2008, dated 2015)
Read-outs that look alike come from different tables or passages of the source.

Test system: Mycosphaerella graminicola; Anamorph: Septoria tritici; Bayer Code SEPTTR
Assay: Leaf blotch of wheat, foliar fungicide treatment, one day protectant (1DP) or three day curative (3DC)
Assay type: in vivo, Septoria tritici on wheat plants (variety Yuma)
Conditions: Zymoseptoria tritici, rating of percent disease control
[1] = 24 h, one day protectant, read-out: SETTTR 1DP 25 ppm
[2] = 24 h, one day protectant, read-out: SEPTTR 1DP 100 ppm
[3] = 72 h, three day curative, read-out: SEPTTR 3DC 25 ppm
[4] = 72 h, three day curative, read-out: SEPTTR 3DC 100 ppm
[5] = 24 h, one day protectant (1DP), read-out: SETTTR 1DP 25 ppm
[6] = 24 h, one day protectant (1DP), read-out: SEPTTR 1DP 100 ppm
[7] = 72 h, three day curative (3DC), read-out: SEPTTR 3DC 25 ppm
[8] = 72 h, three day curative (3DC), read-out: SEPTTR 3DC 100 ppm

Row | Structure (SMILES) | pest or weed control at 25 ppm [1] [%] | pest or weed control at 100 ppm [2] [%] | pest or weed control at 25 ppm [3] [%] | pest or weed control at 100 ppm [4] [%] | pest or weed control at 25 ppm [5] [%] | pest or weed control at 100 ppm [6] [%] | pest or weed control at 25 ppm [7] [%] | pest or weed control at 100 ppm [8] [%]
1 | CC[Si](CC)(CC)Nc1nc(OCc2ccc(OC)c(F)c2)ncc1F [Compound 702] | 76 to 100 | 76 to 100 | 76 to 100 | 76 to 100 |  |  |  | 
2 | O=C(Nc1nc(OCc2ccc(F)cc2)ncc1F)c1cccc(CBr)c1 [Compound 703] | 0 to 25 | 26 to 50 | 0 to 25 | 0 to 25 |  |  |  | 
3 | COc1cccc(COc2ncc(F)c(/N=C/N3CCOCC3)n2)c1 [Compound 704] | 76 to 100 | 76 to 100 | 76 to 100 | 76 to 100 |  |  |  | 
4 | Nc1nc(OCc2ccc(C(F)(F)F)cc2)ncc1F [Compound 705] | 76 to 100 | 76 to 100 | 51 to 75 | 76 to 100 |  |  |  | 
5 | CCCNC(=S)Nc1nc(OCc2cccc(C#N)c2)ncc1F [Compound 706] | 0 to 25 | 76 to 100 | 0 to 25 | 51 to 75 |  |  |  | 
6 | CCCCOc1cccc(COc2ncc(F)c(N)n2)c1 [Compound 708] | 76 to 100 | 76 to 100 | 76 to 100 | 76 to 100 |  |  |  | 
7 | COc1ccc(COc2ncc(F)c(NCOCc3ccccc3)n2)cc1F [Compound 709] | 0 to 25 | 76 to 100 | 0 to 25 | 51 to 75 |  |  |  | 
8 | Fc1ccccc1NC(=S)Nc1nc(OCc2cccs2)ncc1F [Compound 711] | 51 to 75 | 76 to 100 | 26 to 50 | 76 to 100 |  |  |  | 
9 | Nc1nc(OCc2ccccc2F)ncc1F [Compound 713] | 76 to 100 | 76 to 100 | 51 to 75 | 76 to 100 |  |  |  | 
10 | CC(=O)Nc1nc(OC(C)c2ccc(F)cc2)ncc1F (centres unmarked) [Compound 714] | 76 to 100 | 76 to 100 | 76 to 100 | 76 to 100 |  |  |  | 
11 | Nc1nc(Oc2cccc([N+](=O)[O-])c2)ncc1F [Compound 715] | 26 to 50 | 51 to 75 | 0 to 25 | 0 to 25 |  |  |  | 
12 | Cc1cccc(Oc2ccc(COc3ncc(F)c(N)n3)cc2)c1 [Compound 716] | 76 to 100 | 76 to 100 | 76 to 100 | 76 to 100 |  |  |  | 
13 | Cc1ccc(CNc2nc(OCc3ccc(C)cc3)ncc2F)cc1 [Compound 717] | 51 to 75 | 76 to 100 | 76 to 100 | 76 to 100 |  |  |  | 
14 | C/C(=N\Nc1nc(OCc2ccc(C)cc2)ncc1F)c1ccc(C)o1 [Compound 718] | 26 to 50 | 76 to 100 | 26 to 50 | 26 to 50 |  |  |  | 
15 | Nc1nc(OCC2CC2)ncc1F [Compound 722] | 0 to 25 | 0 to 25 | 0 to 25 | 26 to 50 |  |  |  | 
16 | CCCNC(=O)Nc1nc(OCc2ccccc2OC)ncc1F [Compound 724] | 0 to 25 | 26 to 50 | 0 to 25 | 0 to 25 |  |  |  | 
17 | Nc1nc(OCc2ccc(I)cc2)ncc1F [Compound 725] | 76 to 100 | 76 to 100 | 76 to 100 | 76 to 100 |  |  |  | 
18 | COc1ccc(COc2ncc(F)c(/N=C/N(C)C)n2)cc1 [Compound 726] | 76 to 100 | 76 to 100 | 76 to 100 | 76 to 100 |  |  |  | 
19 | C/C(=N\c1nc(OCc2ccc(F)cc2)ncc1F)N(C)C [Compound 727] | 76 to 100 | 76 to 100 | 76 to 100 | 76 to 100 |  |  |  | 
20 | CC#CCOc1ncc(F)c(NC(=O)Nc2ccsc2)n1 [Compound 729] | 51 to 75 | 26 to 50 | 51 to 75 | 51 to 75 |  |  |  | 
21 | CC(C)CCOc1ncc(F)c(N)n1 [Compound 731] | 0 to 25 | 0 to 25 | 0 to 25 | 0 to 25 |  |  |  | 
22 | Cc1ccccc1COc1ncc(F)c(N)n1 [Compound 733] | 76 to 100 | 76 to 100 | 76 to 100 | 76 to 100 |  |  |  | 
23 | COc1ccc(Oc2ncc(F)c(NC(=O)Nc3ccsc3)n2)cc1 [Compound 737] |  |  |  |  | 0 to 25 | 0 to 25 | 0 to 25 | 0 to 25

Row | Structure (SMILES) | pest or weed control at 25 ppm [1] [%] | pest or weed control at 100 ppm [2] [%] | pest or weed control at 25 ppm [3] [%] | pest or weed control at 100 ppm [4] [%] | pest or weed control at 25 ppm [5] [%] | pest or weed control at 100 ppm [6] [%] | pest or weed control at 25 ppm [7] [%] | pest or weed control at 100 ppm [8] [%]
24 | CCCCCC(CC)Oc1ncc(F)c(N)n1 (centres unmarked) [Compound 740] |  |  |  |  | 0 to 25 | 0 to 25 |  | 
25 | Nc1nc(OCc2cc(Cl)cc(C(F)(F)F)c2)ncc1F [Compound 743] |  |  |  |  | 76 to 100 | 76 to 100 | 76 to 100 | 76 to 100
26 | CC(C)/C(=N\c1nc(OCc2ccc(F)cc2)ncc1F)N(C)C [Compound 744] |  |  |  |  | 76 to 100 | 76 to 100 | 76 to 100 | 76 to 100
27 | CC#CCOc1ncc(F)c(NC(C)=O)n1 [Compound 745] |  |  |  |  | 76 to 100 | 76 to 100 | 76 to 100 | 76 to 100
28 | C#CCOc1ncc(F)c(N)n1 [Compound 746] |  |  |  |  | 0 to 25 | 0 to 25 | 0 to 25 | 76 to 100
29 | CC1CC1COc1ncc(F)c(N)n1 (centres unmarked) [Compound 747] |  |  |  |  | 0 to 25 | 76 to 100 | 51 to 75 | 76 to 100
30 | Nc1nc(OCCOc2ccccc2)ncc1F [Compound 748] |  |  |  |  | 0 to 25 | 0 to 25 |  | 
31 | CCOC(=O)Nc1nc(OC(C)c2ccc(F)cc2)ncc1F (centres unmarked) [Compound 749] |  |  |  |  | 76 to 100 | 76 to 100 | 76 to 100 | 76 to 100
32 | Fc1ccccc1CNc1nc(OCc2ccccc2)ncc1F [Compound 750] |  |  |  |  | 26 to 50 | 76 to 100 | 26 to 50 | 51 to 75
33 | CN1CCCC/C1=N\c1nc(OCc2ccn(C)n2)ncc1F [Compound 751] |  |  |  |  | 51 to 75 | 76 to 100 | 26 to 50 | 76 to 100
34 | CCOCCOc1cccc(COc2ncc(F)c(N)n2)c1 [Compound 752] |  |  |  |  | 76 to 100 | 76 to 100 | 76 to 100 | 76 to 100
35 | CCOCNc1nc(OCc2ccccc2)ncc1F [Compound 753] |  |  |  |  | 76 to 100 | 76 to 100 | 76 to 100 | 76 to 100
36 | COc1cccc(COc2ncc(F)c(NN3CCOCC3)n2)c1 [Compound 754] |  |  |  |  | 0 to 25 | 0 to 25 | 0 to 25 | 26 to 50
37 | Cc1ccc(COc2ncc(F)c(N(N)C3CCCCC3)n2)cc1 [Compound 755] |  |  |  |  | 26 to 50 | 26 to 50 | 0 to 25 | 0 to 25
38 | Nc1nc(OCc2ccc(Br)cc2)ncc1F [Compound 757] |  |  |  |  | 76 to 100 | 76 to 100 | 76 to 100 | 76 to 100
39 | O=[N+]([O-])c1ccccc1SNc1nc(OCc2cccc(C(F)(F)F)c2F)ncc1F [Compound 758] |  |  |  |  | 26 to 50 | 76 to 100 | 26 to 50 | 51 to 75
40 | O=C(Nc1nc(OCc2cccs2)ncc1F)c1ccccc1 [Compound 759] |  |  |  |  | 51 to 75 | 76 to 100 | 26 to 50 | 76 to 100
41 | CCCCCOC(=O)Nc1nc(OCc2cccc(F)c2)ncc1F [Compound 762] |  |  |  |  | 76 to 100 | 76 to 100 | 76 to 100 | 76 to 100
42 | Nc1nc(OCc2cccnc2)ncc1F [Compound 763] |  |  |  |  | 76 to 100 | 76 to 100 | 76 to 100 | 76 to 100
43 | CC(C)(C)OC(=O)NNc1nc(OCc2ccccc2)ncc1F [Compound 765] |  |  |  |  | 0 to 25 | 26 to 50 | 0 to 25 | 0 to 25
44 | Cc1ccc(COc2ncc(F)c(NNc3ccccc3)n2)cc1 [Compound 766] |  |  |  |  | 0 to 25 | 51 to 75 | 0 to 25 | 26 to 50
45 | COc1cccc(C(=O)Oc2ncc(F)c(/N=C/N(C)C)n2)c1 [Compound 767] |  |  |  |  | 76 to 100 | 76 to 100 | 76 to 100 | 76 to 100
